System: MOLT-4
Experiment: NCI one-dose assay, MOLT-4
Type: cell-based
Conditions: Homo sapiens; MOLT-4 (Leukemia), 10 uM single dose; read-out: Growth inhibition %
Procedure: (§1) All novel scaffolds 6a–j were carefully selected by the National Cancer Institute (NCI), Bethesda, USA, to elucidate their cytotoxic activity versus 60 human cancer cell lines at 10 µM as a single-dose concentration after a 48 h incubation period.
(§2) National Cancer Institution selected all the synthesized 6a–j (NCI), Bethesda, USA, for in vitro one-dose antitumor assay. The methodology protocol for the NCI anticancer screening was reported in detail elsewhere (http://www.dtp.nci.nih.gov). The anticancer assay was performed in full NCI 60 cell lines extracted from nine tumor cell lines, including leukemia, melanoma, lung, colon, CNS, ovarian, renal, prostate, and breast cancer cell lines.

Structure (SMILES) | inhibition at 10 µM
O=C1Nc2ccc(F)cc2/C1=C\c1ccc(OCC(=O)c2ccccc2)cc1 [Compound 6d, (E/Z)-5-Fluoro-3-{4-[2-oxo-2-phenylethoxy]benzylidene}indolin-2-one] | 32.2%
COc1ccc2c(c1)C(=Cc1ccc(OCC(=O)c3ccccc3)cc1)C(=O)N2 [Compound 6e, 5-Methoxy-3-{4-[2-oxo-2-phenylethoxy]benzylidene}indolin-2-one] | 11.6%

System: 60 human cancer cell lines
Experiment: NCI one-dose assay against sixty NCI cancer cell lines
Type: cell-based
Conditions: ACHN (Renal Cancer), 10 uM single dose, read-out: Growth inhibition %
Procedure: as §1, §2

Structure (SMILES) | inhibition at 10 µM
COc1ccc2c(c1)C(=Cc1ccc(OCC(=O)c3ccccc3)cc1)C(=O)N2 [Compound 6e, 5-Methoxy-3-{4-[2-oxo-2-phenylethoxy]benzylidene}indolin-2-one] | 11.2%

Same assay, conditions: BT-549 (Breast Cancer), 10 uM single dose, read-out: Growth inhibition %

Structure (SMILES) | inhibition at 10 µM
O=C1Nc2ccc(F)cc2/C1=C\c1ccc(OCC(=O)c2ccccc2)cc1 [Compound 6d, (E/Z)-5-Fluoro-3-{4-[2-oxo-2-phenylethoxy]benzylidene}indolin-2-one] | 10.9%

Same assay, conditions: CAKI-1 (Renal Cancer), 10 uM single dose, read-out: Growth inhibition %

Structure (SMILES) | inhibition at 10 µM
O=C1Nc2ccc(F)cc2/C1=C\c1ccc(OCC(=O)c2ccccc2)cc1 [Compound 6d, (E/Z)-5-Fluoro-3-{4-[2-oxo-2-phenylethoxy]benzylidene}indolin-2-one] | 28.3%
COc1ccc2c(c1)C(=Cc1ccc(OCC(=O)c3ccccc3)cc1)C(=O)N2 [Compound 6e, 5-Methoxy-3-{4-[2-oxo-2-phenylethoxy]benzylidene}indolin-2-one] | 19.8%

Same assay, conditions: CCRF-CEM (Leukemia), 10 uM single dose, read-out: Growth inhibition %

Structure (SMILES) | inhibition at 10 µM
O=C1Nc2ccc(F)cc2/C1=C\c1ccc(OCC(=O)c2ccccc2)cc1 [Compound 6d, (E/Z)-5-Fluoro-3-{4-[2-oxo-2-phenylethoxy]benzylidene}indolin-2-one] | 15.6%

Same assay, conditions: EKVX (Non-Small Cell Lung Cancer), 10 uM single dose, read-out: Growth inhibition %

Structure (SMILES) | inhibition at 10 µM
O=C1Nc2ccc(F)cc2/C1=C\c1ccc(OCC(=O)c2ccccc2)cc1 [Compound 6d, (E/Z)-5-Fluoro-3-{4-[2-oxo-2-phenylethoxy]benzylidene}indolin-2-one] | 18.9%

Same assay, conditions: HCT-15 (Colon Cancer), 10 uM single dose, read-out: Growth inhibition %

Structure (SMILES) | inhibition at 10 µM
O=C1Nc2ccc(F)cc2/C1=C\c1ccc(OCC(=O)c2ccccc2)cc1 [Compound 6d, (E/Z)-5-Fluoro-3-{4-[2-oxo-2-phenylethoxy]benzylidene}indolin-2-one] | 11.7%
COc1ccc2c(c1)C(=Cc1ccc(OCC(=O)c3ccccc3)cc1)C(=O)N2 [Compound 6e, 5-Methoxy-3-{4-[2-oxo-2-phenylethoxy]benzylidene}indolin-2-one] | 10.3%

Same assay, conditions: HCT-116 (Colon Cancer), 10 uM single dose, read-out: Growth inhibition %

Structure (SMILES) | inhibition at 10 µM
O=C1Nc2ccc(F)cc2/C1=C\c1ccc(OCC(=O)c2ccccc2)cc1 [Compound 6d, (E/Z)-5-Fluoro-3-{4-[2-oxo-2-phenylethoxy]benzylidene}indolin-2-one] | 14.3%
COc1ccc2c(c1)C(=Cc1ccc(OCC(=O)c3ccccc3)cc1)C(=O)N2 [Compound 6e, 5-Methoxy-3-{4-[2-oxo-2-phenylethoxy]benzylidene}indolin-2-one] | 12%

Same assay, conditions: HL-60(TB) (Leukemia), 10 uM single dose, read-out: Growth inhibition %

Structure (SMILES) | inhibition at 10 µM
O=C1Nc2ccc(F)cc2/C1=C\c1ccc(OCC(=O)c2ccccc2)cc1 [Compound 6d, (E/Z)-5-Fluoro-3-{4-[2-oxo-2-phenylethoxy]benzylidene}indolin-2-one] | 16.9%

Same assay, conditions: HOP-62 (Non-Small Cell Lung Cancer), 10 uM single dose, read-out: Growth inhibition %

Structure (SMILES) | inhibition at 10 µM
O=C1Nc2ccc(F)cc2/C1=C\c1ccc(OCC(=O)c2ccccc2)cc1 [Compound 6d, (E/Z)-5-Fluoro-3-{4-[2-oxo-2-phenylethoxy]benzylidene}indolin-2-one] | 10.5%

Same assay, conditions: HS 578T (Breast Cancer), 10 uM single dose, read-out: Growth inhibition %

Structure (SMILES) | inhibition at 10 µM
O=C1Nc2ccc(F)cc2/C1=C\c1ccc(OCC(=O)c2ccccc2)cc1 [Compound 6d, (E/Z)-5-Fluoro-3-{4-[2-oxo-2-phenylethoxy]benzylidene}indolin-2-one] | 14.8%

Same assay, conditions: KM12 (Colon Cancer), 10 uM single dose, read-out: Growth inhibition %

Structure (SMILES) | inhibition at 10 µM
O=C1Nc2ccc(F)cc2/C1=C\c1ccc(OCC(=O)c2ccccc2)cc1 [Compound 6d, (E/Z)-5-Fluoro-3-{4-[2-oxo-2-phenylethoxy]benzylidene}indolin-2-one] | 15.9%

Same assay, conditions: M14 (Melanoma), 10 uM single dose, read-out: Growth inhibition %

Structure (SMILES) | inhibition at 10 µM
O=C1Nc2ccc(F)cc2/C1=C\c1ccc(OCC(=O)c2ccccc2)cc1 [Compound 6d, (E/Z)-5-Fluoro-3-{4-[2-oxo-2-phenylethoxy]benzylidene}indolin-2-one] | 12.1%

Same assay, conditions: NCI-H226 (Non-Small Cell Lung Cancer), 10 uM single dose, read-out: Growth inhibition %

Structure (SMILES) | inhibition at 10 µM
O=C1Nc2ccc(F)cc2/C1=C\c1ccc(OCC(=O)c2ccccc2)cc1 [Compound 6d, (E/Z)-5-Fluoro-3-{4-[2-oxo-2-phenylethoxy]benzylidene}indolin-2-one] | 10.3%
COc1ccc2c(c1)C(=Cc1ccc(OCC(=O)c3ccccc3)cc1)C(=O)N2 [Compound 6e, 5-Methoxy-3-{4-[2-oxo-2-phenylethoxy]benzylidene}indolin-2-one] | 11.6%

Same assay, conditions: NCI-H322M (Non-Small Cell Lung Cancer), 10 uM single dose, read-out: Growth inhibition %

Structure (SMILES) | inhibition at 10 µM
O=C1Nc2ccc(F)cc2/C1=C\c1ccc(OCC(=O)c2ccccc2)cc1 [Compound 6d, (E/Z)-5-Fluoro-3-{4-[2-oxo-2-phenylethoxy]benzylidene}indolin-2-one] | 11.2%
COc1ccc2c(c1)C(=Cc1ccc(OCC(=O)c3ccccc3)cc1)C(=O)N2 [Compound 6e, 5-Methoxy-3-{4-[2-oxo-2-phenylethoxy]benzylidene}indolin-2-one] | 12.4%

Same assay, conditions: NCI-H522 (Non-Small Cell Lung Cancer), 10 uM single dose, read-out: Growth inhibition %

Structure (SMILES) | inhibition at 10 µM
O=C1Nc2ccc(F)cc2/C1=C\c1ccc(OCC(=O)c2ccccc2)cc1 [Compound 6d, (E/Z)-5-Fluoro-3-{4-[2-oxo-2-phenylethoxy]benzylidene}indolin-2-one] | 12.4%

Same assay, conditions: PC-3 (Prostate Cancer), 10 uM single dose, read-out: Growth inhibition %

Structure (SMILES) | inhibition at 10 µM
O=C1Nc2ccc(F)cc2/C1=C\c1ccc(OCC(=O)c2ccccc2)cc1 [Compound 6d, (E/Z)-5-Fluoro-3-{4-[2-oxo-2-phenylethoxy]benzylidene}indolin-2-one] | 23%
COc1ccc2c(c1)C(=Cc1ccc(OCC(=O)c3ccccc3)cc1)C(=O)N2 [Compound 6e, 5-Methoxy-3-{4-[2-oxo-2-phenylethoxy]benzylidene}indolin-2-one] | 14.8%

Same assay, conditions: RPMI-8226 (Leukemia), 10 uM single dose, read-out: Growth inhibition %

Structure (SMILES) | inhibition at 10 µM
O=C1Nc2ccc(F)cc2/C1=C\c1ccc(OCC(=O)c2ccccc2)cc1 [Compound 6d, (E/Z)-5-Fluoro-3-{4-[2-oxo-2-phenylethoxy]benzylidene}indolin-2-one] | 22.1%

Same assay, conditions: SF-268 (CNS Cancer), 10 uM single dose, read-out: Growth inhibition %

Structure (SMILES) | inhibition at 10 µM
O=C1Nc2ccc(F)cc2/C1=C\c1ccc(OCC(=O)c2ccccc2)cc1 [Compound 6d, (E/Z)-5-Fluoro-3-{4-[2-oxo-2-phenylethoxy]benzylidene}indolin-2-one] | 14.6%

Same assay, conditions: SF-539 (CNS Cancer), 10 uM single dose, read-out: Growth inhibition %

Structure (SMILES) | inhibition at 10 µM
O=C1Nc2ccc(F)cc2/C1=C\c1ccc(OCC(=O)c2ccccc2)cc1 [Compound 6d, (E/Z)-5-Fluoro-3-{4-[2-oxo-2-phenylethoxy]benzylidene}indolin-2-one] | 14.3%

Same assay, conditions: SNB-19 (CNS Cancer), 10 uM single dose, read-out: Growth inhibition %

Structure (SMILES) | inhibition at 10 µM
O=C1Nc2ccc(F)cc2/C1=C\c1ccc(OCC(=O)c2ccccc2)cc1 [Compound 6d, (E/Z)-5-Fluoro-3-{4-[2-oxo-2-phenylethoxy]benzylidene}indolin-2-one] | 14.9%

Same assay, conditions: U-251, U251 (CNS Cancer), 10 uM single dose, read-out: Growth inhibition %

Structure (SMILES) | inhibition at 10 µM
O=C1Nc2ccc(F)cc2/C1=C\c1ccc(OCC(=O)c2ccccc2)cc1 [Compound 6d, (E/Z)-5-Fluoro-3-{4-[2-oxo-2-phenylethoxy]benzylidene}indolin-2-one] | 16.8%

Same assay, conditions: UACC-62 (Melanoma), 10 uM single dose, read-out: Growth inhibition %

Structure (SMILES) | inhibition at 10 µM
O=C1Nc2ccc(F)cc2/C1=C\c1ccc(OCC(=O)c2ccccc2)cc1 [Compound 6d, (E/Z)-5-Fluoro-3-{4-[2-oxo-2-phenylethoxy]benzylidene}indolin-2-one] | 30.6%
COc1ccc2c(c1)C(=Cc1ccc(OCC(=O)c3ccccc3)cc1)C(=O)N2 [Compound 6e, 5-Methoxy-3-{4-[2-oxo-2-phenylethoxy]benzylidene}indolin-2-one] | 24.7%

System: K-562
Experiment: NCI one-dose assay, K-562
Type: cell-based
Conditions: Homo sapiens, K562; K-562 (Leukemia), 10 uM single dose; read-out: Growth inhibition %
Procedure: as §1, §2

Structure (SMILES) | inhibition at 10 µM
O=C1Nc2ccc(F)cc2/C1=C\c1ccc(OCC(=O)c2ccccc2)cc1 [Compound 6d, (E/Z)-5-Fluoro-3-{4-[2-oxo-2-phenylethoxy]benzylidene}indolin-2-one] | 33.6%
COc1ccc2c(c1)C(=Cc1ccc(OCC(=O)c3ccccc3)cc1)C(=O)N2 [Compound 6e, 5-Methoxy-3-{4-[2-oxo-2-phenylethoxy]benzylidene}indolin-2-one] | 19.5%

System: LOX IMVI
Experiment: NCI one-dose assay, LOX IMVI
Type: cell-based
Conditions: Homo sapiens; LOX IMVI (Melanoma), 10 uM single dose; read-out: Growth inhibition %
Procedure: as §1, §2

Structure (SMILES) | inhibition at 10 µM
O=C1Nc2ccc(F)cc2/C1=C\c1ccc(OCC(=O)c2ccccc2)cc1 [Compound 6d, (E/Z)-5-Fluoro-3-{4-[2-oxo-2-phenylethoxy]benzylidene}indolin-2-one] | 17.7%
COc1ccc2c(c1)C(=Cc1ccc(OCC(=O)c3ccccc3)cc1)C(=O)N2 [Compound 6e, 5-Methoxy-3-{4-[2-oxo-2-phenylethoxy]benzylidene}indolin-2-one] | 19.5%

System: MCF-7
Experiment: NCI one-dose assay, MCF-7
Type: cell-based, human
Conditions: Homo sapiens, MCF7, MCF7 (Breast Cancer), 10 uM single dose; read-out: Growth inhibition %
Procedure: as §1, §2

Structure (SMILES) | inhibition at 10 µM
O=C1Nc2ccc(F)cc2/C1=C\c1ccc(OCC(=O)c2ccccc2)cc1 [Compound 6d, (E/Z)-5-Fluoro-3-{4-[2-oxo-2-phenylethoxy]benzylidene}indolin-2-one] | 23.1%
COc1ccc2c(c1)C(=Cc1ccc(OCC(=O)c3ccccc3)cc1)C(=O)N2 [Compound 6e, 5-Methoxy-3-{4-[2-oxo-2-phenylethoxy]benzylidene}indolin-2-one] | 20.2%

System: SR
Experiment: NCI one-dose assay, SR
Type: cell-based
Conditions: Homo sapiens; SR (Leukemia), 10 uM single dose; read-out: Growth inhibition %
Procedure: as §1, §2

Structure (SMILES) | inhibition at 10 µM
O=C1Nc2ccc(F)cc2/C1=C\c1ccc(OCC(=O)c2ccccc2)cc1 [Compound 6d, (E/Z)-5-Fluoro-3-{4-[2-oxo-2-phenylethoxy]benzylidene}indolin-2-one] | 25.2%

System: UO-31
Experiment: NCI one-dose assay, UO-31
Type: cell-based
Conditions: Homo sapiens; UO-31 (Renal Cancer), 10 uM single dose; read-out: Growth inhibition %
Procedure: as §1, §2

Structure (SMILES) | inhibition at 10 µM
O=C1Nc2ccc(F)cc2/C1=C\c1ccc(OCC(=O)c2ccccc2)cc1 [Compound 6d, (E/Z)-5-Fluoro-3-{4-[2-oxo-2-phenylethoxy]benzylidene}indolin-2-one] | 32.3%
COc1ccc2c(c1)C(=Cc1ccc(OCC(=O)c3ccccc3)cc1)C(=O)N2 [Compound 6e, 5-Methoxy-3-{4-[2-oxo-2-phenylethoxy]benzylidene}indolin-2-one] | 29.6%

System: not given
Experiment: not given
Conditions: not given

Structure (SMILES) | melting point
O=C1Nc2ccc(F)cc2/C1=C\c1ccc(OCC(=O)c2ccccc2)cc1 [Compound 6d, (E/Z)-5-Fluoro-3-{4-[2-oxo-2-phenylethoxy]benzylidene}indolin-2-one] | 223 to 226 °C
COc1ccc2c(c1)C(=Cc1ccc(OCC(=O)c3ccccc3)cc1)C(=O)N2 [Compound 6e, 5-Methoxy-3-{4-[2-oxo-2-phenylethoxy]benzylidene}indolin-2-one] | 196 to 198 °C

System: T-47D
Experiment: NCI one-dose assay, T-47D
Type: cell-based
Conditions: Homo sapiens, T47D; T-47D (Breast Cancer), 10 uM single dose; read-out: Growth inhibition %
Procedure: as §1, §2

Structure (SMILES) | inhibition at 10 µM
O=C1Nc2ccc(F)cc2/C1=C\c1ccc(OCC(=O)c2ccccc2)cc1 [Compound 6d, (E/Z)-5-Fluoro-3-{4-[2-oxo-2-phenylethoxy]benzylidene}indolin-2-one] | 14.3%

System: SNB-75 cells (CNS cancer cell line)
Experiment: NCI one-dose assay, SNB-75
Type: cell-based
Conditions: Homo sapiens; SNB-75 (CNS Cancer), 10 uM single dose; read-out: Growth inhibition %
Procedure: as §1, §2

Structure (SMILES) | inhibition at 10 µM
O=C1Nc2ccc(F)cc2/C1=C\c1ccc(OCC(=O)c2ccccc2)cc1 [Compound 6d, (E/Z)-5-Fluoro-3-{4-[2-oxo-2-phenylethoxy]benzylidene}indolin-2-one] | 33.7%

— PMC11070402, “New antiproliferative 3-substituted oxindoles inhibiting EGFR/VEGFR-2 and tubulin polymerization” (Molecular Diversity, 2023)
